Measurements: ChEMBL document CHEMBL4311999, “3-Hydrazinoisatin-based benzenesulfonamides as novel carbonic anhydrase inhibitors endowed with anticancer activity: Synthesis, in vitro biological evaluation and in silico insights” (Eur J Med Chem, 2019)
Blank lines part the entries; values can stand above or below the compound they belong to.

How the values were obtained:
Carbonic anhydrase 9 = Carbonic anhydrase 9 (Homo sapiens, UniProt Q16790); experiment: Inhibition of recombinant human carbonic anhydrase 9 preincubated for 15 mins by phenol red dye based stopped flow CO2 hydration assay
NCI-H460 = experiment: Growth inhibition of human NCI-H460 cells at 10 uM incubated for 48 hrs by sulforhodamine B assay relative to control; assay type: functional; details: NCI-H460, 48 h, read-out: GI
OVCAR-5 = experiment: Growth inhibition of human OVCAR5 cells at 10 uM incubated for 48 hrs by sulforhodamine B assay relative to control; assay type: functional; details: OVCAR-5, 48 h, read-out: GI
CAKI-1 = experiment: Growth inhibition of human Caki1 cells at 10 uM incubated for 48 hrs by sulforhodamine B assay relative to control; assay type: functional; details: CAKI-1, 48 h, read-out: GI
T47D = experiment: Growth inhibition of human T47D cells at 10 uM incubated for 48 hrs by sulforhodamine B assay relative to control; assay type: functional; details: read-out: GI
MCF7 = experiment: Growth inhibition of human MCF7 cells at 10 uM incubated for 48 hrs by sulforhodamine B assay relative to control; assay type: functional; details: MCF7, 48 h, read-out: GI
NCI-H522 = experiment: Growth inhibition of human NCI-H522 cells at 10 uM incubated for 48 hrs by sulforhodamine B assay relative to control; assay type: functional; details: NCI-H522, 48 h, read-out: GI
SR = experiment: Growth inhibition of human SR cells at 10 uM incubated for 48 hrs by sulforhodamine B assay relative to control; assay type: functional; details: read-out: GI
HCT-116 = experiment: Growth inhibition of human HCT116 cells at 10 uM incubated for 48 hrs by sulforhodamine B assay relative to control; assay type: functional; details: HCT-116, 48 h, read-out: GI
OVCAR-8 = experiment: Growth inhibition of human OVCAR8 cells at 10 uM incubated for 48 hrs by sulforhodamine B assay relative to control; assay type: functional; details: OVCAR-8, 48 h, read-out: GI
A549 = experiment: Growth inhibition of human A549/ATCC cells at 10 uM incubated for 48 hrs by sulforhodamine B assay relative to control; assay type: functional; details: A549, 48 h, read-out: GI
MDA-MB-231 = experiment: Growth inhibition of human MDA-MB-231 cells at 10 uM incubated for 48 hrs by sulforhodamine B assay relative to control; assay type: functional; details: MDA-MB-231, 48 h, read-out: GI
SK-MEL-5 = experiment: Growth inhibition of human SK-MEL-5 cells at 10 uM incubated for 48 hrs by sulforhodamine B assay relative to control; assay type: functional; details: SK-MEL-5, 48 h, read-out: GI
SNB-75 = experiment: Growth inhibition of human SNB75 cells at 10 uM incubated for 48 hrs by sulforhodamine B assay relative to control; assay type: functional; details: SNB-75, 48 h, read-out: GI
MDA-MB-468 = experiment: Growth inhibition of human MDA-MB-468 cells at 10 uM incubated for 48 hrs by sulforhodamine B assay relative to control; assay type: functional; details: MDA-MB-468, 48 h, read-out: GI
UACC-62 = experiment: Growth inhibition of human UACC62 cells at 10 uM incubated for 48 hrs by sulforhodamine B assay relative to control; assay type: functional; details: UACC-62, 48 h, read-out: GI
Hs-578T = experiment: Growth inhibition of human Hs 578T cells at 10 uM incubated for 48 hrs by sulforhodamine B assay relative to control; assay type: functional; details: read-out: GI
Carbonic anhydrase 1 = Carbonic anhydrase 1 (Homo sapiens, UniProt P00915); experiment: Inhibition of recombinant human carbonic anhydrase 1 preincubated for 15 mins by phenol red dye based stopped flow CO2 hydration assay
CCRF-CEM = experiment: Growth inhibition of human CCRF-CEM cells at 10 uM incubated for 48 hrs by sulforhodamine B assay relative to control; assay type: functional; details: read-out: GI
NCI/ADR-RES = experiment: Growth inhibition of human NCI/ADR-RES cells at 10 uM incubated for 48 hrs by sulforhodamine B assay relative to control; assay type: functional; details: read-out: GI
RXF 393 = experiment: Growth inhibition of human RXF393 cells at 10 uM incubated for 48 hrs by sulforhodamine B assay relative to control; assay type: functional; details: RXF 393, 48 h, read-out: GI
ACHN = experiment: Growth inhibition of human ACHN cells at 10 uM incubated for 48 hrs by sulforhodamine B assay relative to control; assay type: functional; details: read-out: GI
SNB-19 = experiment: Growth inhibition of human SNB19 cells at 10 uM incubated for 48 hrs by sulforhodamine B assay relative to control; assay type: functional; details: SNB-19, 48 h, read-out: GI
786-0 = experiment: Growth inhibition of human 786-0 cells at 10 uM incubated for 48 hrs by sulforhodamine B assay relative to control; assay type: functional; details: 786-0, 48 h, read-out: GI
NCI-H226 = experiment: Growth inhibition of human NCI-H226 cells at 10 uM incubated for 48 hrs by sulforhodamine B assay relative to control; assay type: functional; details: NCI-H226, 48 h, read-out: GI
SF-539 = experiment: Growth inhibition of human SF539 cells at 10 uM incubated for 48 hrs by sulforhodamine B assay relative to control; assay type: functional; details: SF-539, 48 h, read-out: GI
OVCAR-4 = experiment: Growth inhibition of human OVCAR4 cells at 10 uM incubated for 48 hrs by sulforhodamine B assay relative to control; assay type: functional; details: OVCAR-4, 48 h, read-out: GI
UO-31 = experiment: Growth inhibition of human UO31 cells at 10 uM incubated for 48 hrs by sulforhodamine B assay relative to control; assay type: functional; details: UO-31, 48 h, read-out: GI
PC-3 = experiment: Growth inhibition of human PC3 cells at 10 uM incubated for 48 hrs by sulforhodamine B assay relative to control; assay type: functional; details: PC-3, 48 h, read-out: GI
SF-268 = experiment: Growth inhibition of human SF268 cells at 10 uM incubated for 48 hrs by sulforhodamine B assay relative to control; assay type: functional; details: SF-268, 48 h, read-out: GI
MOLT-4 = experiment: Growth inhibition of human MOLT4 cells at 10 uM incubated for 48 hrs by sulforhodamine B assay relative to control; assay type: functional; details: MOLT-4, 48 h, read-out: GI
RPMI-8226 = experiment: Growth inhibition of human RPMI8226 cells at 10 uM incubated for 48 hrs by sulforhodamine B assay relative to control; assay type: functional; details: RPMI-8226, 48 h, read-out: GI

Chain of Carbonic anhydrase 1 (P00915 whole entry): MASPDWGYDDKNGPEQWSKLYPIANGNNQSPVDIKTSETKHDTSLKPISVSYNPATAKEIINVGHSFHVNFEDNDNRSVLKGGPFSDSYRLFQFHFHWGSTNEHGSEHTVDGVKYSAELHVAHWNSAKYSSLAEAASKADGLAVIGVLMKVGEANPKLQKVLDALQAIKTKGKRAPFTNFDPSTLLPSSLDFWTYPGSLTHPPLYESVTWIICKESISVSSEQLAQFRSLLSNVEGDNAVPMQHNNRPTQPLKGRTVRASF

Compound: CCN1C(=O)/C(=N\Nc2ccc(S(N)(=O)=O)cc2)c2cc(Cl)ccc21
Ki (Carbonic anhydrase 9): 8.4 nM

Compound: CCOC(=O)CN1C(=O)/C(=N\Nc2ccc(S(N)(=O)=O)cc2)c2ccccc21
Ki (Carbonic anhydrase 9): 15.9 nM

Compound: CCCN1C(=O)/C(=N\Nc2ccc(S(N)(=O)=O)cc2)c2cc(Cl)ccc21
Ki (Carbonic anhydrase 9): 13.1 nM

Compound: CCN1C(=O)/C(=N\Nc2ccc(S(N)(=O)=O)cc2)c2cc(Br)ccc21
Ki (Carbonic anhydrase 9): 42 nM

More lines, in order of falling Ki (Carbonic anhydrase 9), values ahead:

Ki (Carbonic anhydrase 9): 60.5 nM
Ki (Carbonic anhydrase 1): > 10000 nM
Compound: NS(=O)(=O)c1ccc(N/N=C2\C(=O)N(Cc3ccccc3)c3ccc(Br)cc32)cc1
inhibition of growth at 10 µM (NCI-H460): 20%
inhibition of growth at 10 µM (OVCAR-5): 12%
inhibition of growth at 10 µM (CAKI-1): 18%
inhibition of growth at 10 µM (T47D): 19%
inhibition of growth at 10 µM (MCF7): 23%
inhibition of growth at 10 µM (NCI-H522): 29%
inhibition of growth at 10 µM (SR): 20%
inhibition of growth at 10 µM (HCT-116): 24%
inhibition of growth at 10 µM (OVCAR-8): 26%
inhibition of growth at 10 µM (A549): 19%
inhibition of growth at 10 µM (MDA-MB-231): 23%
inhibition of growth at 10 µM (SK-MEL-5): 17%
inhibition of growth at 10 µM (SNB-75): 46%
inhibition of growth at 10 µM (MDA-MB-468): 13%
inhibition of growth at 10 µM (UACC-62): 30%
inhibition of growth at 10 µM (Hs-578T): 27%
inhibition of growth at 10 µM (CCRF-CEM): 19%
inhibition of growth at 10 µM (NCI/ADR-RES): 13%
inhibition of growth at 10 µM (RXF 393): 38%
inhibition of growth at 10 µM (ACHN): 22%
inhibition of growth at 10 µM (SNB-19): 27%
inhibition of growth at 10 µM (786-0): 19%
inhibition of growth at 10 µM (NCI-H226): 33%
inhibition of growth at 10 µM (SF-539): 25%
inhibition of growth at 10 µM (OVCAR-4): 19%
inhibition of growth at 10 µM (UO-31): 18%
inhibition of growth at 10 µM (PC-3): 21%
inhibition of growth at 10 µM (SF-268): 13%
inhibition of growth at 10 µM (MOLT-4): 21%
inhibition of growth at 10 µM (RPMI-8226): 10%

Ki (Carbonic anhydrase 9): 40.1 nM
Compound: CN1C(=O)/C(=N\Nc2ccc(S(N)(=O)=O)cc2)c2cc(Br)ccc21

Ki (Carbonic anhydrase 9): 28.6 nM
Compound: CCCN1C(=O)/C(=N\Nc2ccc(S(N)(=O)=O)cc2)c2ccccc21
